# Data: patent US20050209343A1, “Percutaneous absorption promoters and compositions for treating athlete's foot” (priority 2002, published 2005)
# Key:
# [1] = everyday administration, 1200 mg/kg/day for 52 weeks (Williams et al. 1999); cited from earlier work
# [2] = Percutaneous absorbability test: amount of antifungal agent in skin after ointment administration; settings: for Amount of antifungal agent in skin relative to antifungal agent alone (100), value in parentheses: same test, 2 hours after administration, *p<0.05, **p<0.01 Student t-test
# Protocol: Using clotrimazole, bifonazole, and econazole as antifungal agents, the percutaneous absorption promoting effects of reduced coenzyme Q10 and oxidized coenzyme Q10 to these antifungal agents were evaluated. The antifungal agents were separately dissolved in ethanol, mixed with heat-melted polyethylene glycol 1000 (PEG 1000) so as to have the final concentration of 1%, and prepared into ointments by allowing them to stand at room temperature. Each of heat-melted reduced coenzyme Q10 and oxidized coenzyme Q10 was mixed with the above-mentioned heat-melted PEG 1000 ointment containing each antifungal agent to prepare mixed ointments in which each of the final concentrations of coenzyme Q10s and antifungal agent is 1%.
# A percutaneous absorbability test was carried out using fully fed male hairless rats (weight: 350 to 400 g). The hairless rats were mildly anesthetized with ether, and three administration parts of 3 cm square were set on the backs of each rat. To each part, 0.1 g of each ointment, i.e. the ointment containing an antifungal agent alone, the ointment containing an antifungal agent and reduced coenzyme Q10, and the ointment containing an antifungal agent and oxidized coenzyme Q10 was administered. After the lapse of 2 hours from the administration, the rat was euthanized, the administration parts were thoroughly washed, and skin was collected. The clotrimazole amounts in skin were determined by the sequential treatment subjecting the skin to homogenization, acetone extraction, concentration using a solid phase column, and high performance liquid chromatography. Each amount of bifonazole and econazole in the skin was determined by the sequential treatment subjecting the skin to homogenization, methanol extraction, and high performance liquid chromatography.
# The values are the average value ±standard deviation (n=3).
# [3] = Skin irritation test (Draize method); type: in vivo, JW rabbits
# Protocol: A skin irritation test was carried out using JW rabbits (17 to 18 weeks old). The backs of three rabbits were dehaired by an electric hair clipper, and four divisions of administration parts of 2.5×2.5 cm square were set on each rabbit back. 0.5 g of each specimen, i.e. oxidized coenzyme Q10 and reduced coenzyme Q10 (containing 2% of oxidized coenzyme Q10) was administered on the administration parts, and the parts were covered with gauzes for specimen's fixation. After the lapse of 4 hours, the specimens were removed. Further after the lapse of 1 hour, 24 hours, 48 hours, and 72 hours, formation of erythema, crusta and dropsy was determined by the method according to Draize J. H. et al. (Exp. Ther., 82, 377-390, 1944). That is, observations were made in view of formations of erythema, crusta and dropsy, they were scored for calculation of the primary irritation indexes, and the skin irritations were evaluated based on said primary irritation indexes. As a result, all scores were 0 (i.e. no erythema, crusta or dropsy) in observation items of oxidized coenzyme Q10 and reduced coenzyme Q10.
smiles,measurement,setting,value
COC1=C(OC)C(=O)C(C/C=C(\C)CC/C=C(\C)CC/C=C(\C)CC/C=C(\C)CC/C=C(\C)CC/C=C(\C)CC/C=C(\C)CC/C=C(\C)CC/C=C(\C)CCC=C(C)C)=C(C)C1=O [coenzyme Q10],Toxic influence in chronic toxicity test,[1],completely no toxic influence had been observed
"Clc1ccccc1C(c1ccccc1)(c1ccccc1)n1ccnc1 [Clotrimazole, clotrimazole]","Amount of antifungal agent in skin relative to antifungal agent alone (100), value in parentheses",[2],(100)
"c1ccc(-c2ccc(C(c3ccccc3)n3ccnc3)cc2)cc1 (stereo not drawn) [Bifonazole, bifonazole]","Amount of antifungal agent in skin relative to antifungal agent alone (100), value in parentheses",[2],(100)
"Clc1ccc(COC(Cn2ccnc2)c2ccc(Cl)cc2Cl)cc1 (stereo not drawn) [Econazole, econazole]","Amount of antifungal agent in skin relative to antifungal agent alone (100), value in parentheses",[2],(100)
COc1c(O)c(C)c(C/C=C(\C)CC/C=C(\C)CC/C=C(\C)CC/C=C(\C)CC/C=C(\C)CC/C=C(\C)CC/C=C(\C)CC/C=C(\C)CC/C=C(\C)CCC=C(C)C)c(O)c1OC [reduced coenzyme Q10],"Scores for erythema, crusta and dropsy (Draize)","[3]; 0.5 g on 2.5×2.5 cm dehaired back skin for 4 hours, observed 1, 24, 48 and 72 hours after removal, three rabbits",0
same,Skin irritation (based on primary irritation index),"[3]; 0.5 g on dehaired back skin for 4 hours, observed up to 72 hours after removal",no skin irritation was observed
COC1=C(OC)C(=O)C(C/C=C(\C)CC/C=C(\C)CC/C=C(\C)CC/C=C(\C)CC/C=C(\C)CC/C=C(\C)CC/C=C(\C)CC/C=C(\C)CC/C=C(\C)CCC=C(C)C)=C(C)C1=O [oxidized coenzyme Q10],Increase of antifungal agent amount in skin,"[2]; rat, in vivo",20-40%
same,"Scores for erythema, crusta and dropsy (Draize)","[3]; rabbit, in vivo",0
same,Skin irritation (based on primary irritation index),"[3]; rabbit, in vivo",no skin irritation was observed
